Assay results published in ChEMBL document CHEMBL1125348, “The first mechanism-based inactivators for angiotensin-converting enzyme” (J Med Chem, 1992).

Key:
Format in all cases: protein assay
[1] = target: T1, Angiotensin-converting enzyme (Homo sapiens, UniProt P12821+Q9BYF1); assay: First order rate constant for angiotensin I converting enzyme
[2] = target: T1, Angiotensin-converting enzyme; assay: Inhibition of hydrolysis of N-[3-(2-furyl)acryloyll-Phe-Gly-Gly7 by angiotensin I converting enzyme
[3] = target: T1, Angiotensin-converting enzyme; assay: kinact for angiotensin I converting enzyme
[4] = tested on: N#CCC(=O)N[C@@H](Cc1ccccc1)C(=O)N[C@@H](Cc1ccccc1)C(=O)O; assay: Km for angiotensin I converting enzyme

T1 sequence (P12821 whole entry, looked up): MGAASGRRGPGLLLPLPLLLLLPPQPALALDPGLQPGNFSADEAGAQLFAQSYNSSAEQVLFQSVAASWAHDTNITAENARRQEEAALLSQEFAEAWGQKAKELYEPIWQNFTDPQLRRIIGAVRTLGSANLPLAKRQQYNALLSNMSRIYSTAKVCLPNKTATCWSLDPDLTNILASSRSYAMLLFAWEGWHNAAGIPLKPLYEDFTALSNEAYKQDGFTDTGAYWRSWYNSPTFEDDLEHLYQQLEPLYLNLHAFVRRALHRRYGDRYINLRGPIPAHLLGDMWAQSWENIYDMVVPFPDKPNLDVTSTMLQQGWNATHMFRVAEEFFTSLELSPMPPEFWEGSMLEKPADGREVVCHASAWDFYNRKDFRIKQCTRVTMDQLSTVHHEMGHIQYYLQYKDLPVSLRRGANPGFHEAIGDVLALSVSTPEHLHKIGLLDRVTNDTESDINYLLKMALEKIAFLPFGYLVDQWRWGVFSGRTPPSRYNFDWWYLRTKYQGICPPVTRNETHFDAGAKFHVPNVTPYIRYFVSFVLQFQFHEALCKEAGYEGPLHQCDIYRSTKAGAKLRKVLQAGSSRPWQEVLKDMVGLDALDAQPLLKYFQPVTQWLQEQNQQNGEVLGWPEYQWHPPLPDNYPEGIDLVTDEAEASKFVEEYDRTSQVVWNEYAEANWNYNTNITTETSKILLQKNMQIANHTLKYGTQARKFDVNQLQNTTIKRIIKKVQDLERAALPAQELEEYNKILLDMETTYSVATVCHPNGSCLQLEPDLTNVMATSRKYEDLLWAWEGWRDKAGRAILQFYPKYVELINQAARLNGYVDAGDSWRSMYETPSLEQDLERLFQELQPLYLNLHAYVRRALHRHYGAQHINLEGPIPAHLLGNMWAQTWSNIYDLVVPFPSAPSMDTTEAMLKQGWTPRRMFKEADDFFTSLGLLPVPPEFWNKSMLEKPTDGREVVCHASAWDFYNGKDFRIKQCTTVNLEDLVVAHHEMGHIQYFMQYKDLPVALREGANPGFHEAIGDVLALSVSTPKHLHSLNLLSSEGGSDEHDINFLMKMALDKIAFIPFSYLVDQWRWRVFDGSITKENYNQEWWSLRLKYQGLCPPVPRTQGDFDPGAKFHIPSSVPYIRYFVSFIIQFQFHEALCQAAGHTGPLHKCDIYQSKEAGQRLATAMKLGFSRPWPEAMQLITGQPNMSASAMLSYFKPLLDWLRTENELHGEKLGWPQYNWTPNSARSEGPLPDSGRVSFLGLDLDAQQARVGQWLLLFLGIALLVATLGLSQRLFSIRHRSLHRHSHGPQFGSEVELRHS
T1 sequence (Q9BYF1 whole entry, looked up): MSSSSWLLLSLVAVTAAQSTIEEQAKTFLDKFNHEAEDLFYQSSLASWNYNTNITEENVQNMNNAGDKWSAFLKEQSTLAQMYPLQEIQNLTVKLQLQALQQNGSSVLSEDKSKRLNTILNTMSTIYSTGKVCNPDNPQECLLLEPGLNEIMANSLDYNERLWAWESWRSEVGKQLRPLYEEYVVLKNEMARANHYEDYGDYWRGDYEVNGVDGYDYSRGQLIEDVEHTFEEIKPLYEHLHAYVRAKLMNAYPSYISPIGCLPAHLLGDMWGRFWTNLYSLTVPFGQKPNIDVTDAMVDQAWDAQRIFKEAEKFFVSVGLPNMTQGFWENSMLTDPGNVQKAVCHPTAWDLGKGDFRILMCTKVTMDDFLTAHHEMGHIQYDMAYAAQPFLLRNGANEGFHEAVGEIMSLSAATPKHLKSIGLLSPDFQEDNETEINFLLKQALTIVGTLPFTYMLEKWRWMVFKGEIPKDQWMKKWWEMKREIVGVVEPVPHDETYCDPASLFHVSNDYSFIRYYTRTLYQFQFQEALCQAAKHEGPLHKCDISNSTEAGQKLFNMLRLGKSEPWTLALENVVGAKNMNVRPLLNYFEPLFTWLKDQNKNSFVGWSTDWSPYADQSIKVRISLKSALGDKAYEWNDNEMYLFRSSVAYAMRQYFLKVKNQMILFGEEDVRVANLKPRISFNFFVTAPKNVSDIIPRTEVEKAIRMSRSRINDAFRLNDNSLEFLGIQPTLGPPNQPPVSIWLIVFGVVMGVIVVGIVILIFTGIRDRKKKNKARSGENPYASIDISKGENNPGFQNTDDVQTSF
Chain of Angiotensin-converting enzyme (Homo sapiens) (Q9BYF1 whole entry, looked up): as above
Chain of Angiotensin-converting enzyme (Homo sapiens) (P12821 whole entry, looked up): as the sequence (P12821 whole entry, looked up) above

`C[C@H](NC(=O)CC#N)C(=O)N[C@@H](Cc1ccccc1)C(=O)O` showed a k obs [1] of 0.000251 s⁻¹.
`N#CCC(=O)N[C@@H](Cc1ccccc1)C(=O)N[C@@H](Cc1ccccc1)C(=O)O` was tested, and the Ki [2] was 65 µM, the k obs [1] was 0.000835 s⁻¹ and the K inact [3] was 0.08 min⁻¹.
`CC(C)C[C@H](NC(=O)[C@H](C)NC(=O)CC#N)C(=O)O` was tested, and the k obs [1] was 0.000501 s⁻¹.
Molecule “Angiotensin-converting enzyme (Homo sapiens) (from UniProt P12821+Q9BYF1)” has a Km [4] of 10.5 mM.
